The subject of test [1] is NC/Nga mice. The test is described as follows: Serum IgE content by ELISA in NC/Nga mice. Format: in vivo. Particulars: topical application for 5 weeks, PiCl-sensitized, vs Vaseline. From the text:
(§1) NC/Nga mice (5 weeks old, female) were purchased from Japan SLC, Inc. […] On day 12, day 19, day 26 and day 33 after starting application of Vaseline or fucoxanthin, 0.8% picryl chloride (PiCl) was further applied to the back skin of the mice. The behaviors of the mice were observed by video monitoring. On day 34 after starting application of Vaseline or fucoxanthin, bromodeoxyuridine (BrdU, Nacalai Tesque) (0.[…] weight) was intraperitoneally administered to the mice. At 5 weeks after starting application of Vaseline or fucoxanthin, the time each mouse spent for scratching behavior in 10 minutes was measured by video monitoring. Then, the mice were sacrificed and the auricular lymph node, blood and skin were obtained. Serum IgE content was determined by enzyme-linked immunosorbent assay (ELISA) using Mouse IgE Assay Kit (Morinaga Institute of Biological Science, Inc.). […] BrdU uptake was determined by ELISA using Cell Proliferation ELISA, BrdU (Colorimetric) (Roche Diagnostics K.K.). […] Also, serum IgE levels and swelling of the auricular lymph nodes of the mice were determined in the same manner as described in Example 2.

In test [2] the test system is NC/Nga mice. The test is described as follows: Transdermal water loss (TEWL) in the skin of NC/Nga mice. Format: in vivo. Particulars: topical application plus PiCl, at 5 weeks, vs Vaseline.
Description: Transdermal water loss (TEWL) in the skin of the mice treated with fucoxanthin was also measured and compared with that in the skin of the mice treated with tacrolimus.
Test [3] deals with NC/Nga mice. The test is described as follows: Clinical symptoms of dermatitis in PiCl-sensitized NC/Nga mice. The class given is in vivo. To be noted: topical application plus PiCl, at 5 weeks. The procedure:
Next, we examined the effects of fucoxanthin and astaxanthin on clinical symptoms of dermatitis in NC/Nga mice. In the same manner as described in Example 2, fucoxanthin or astaxanthin and PiCl were applied to NC/Nga mice. […] In the same manner as described in Example 2, Vaseline, fucoxanthin or tacrolimus and PiCl were applied to NC/Nga mice. […] Also, serum IgE levels and swelling of the auricular lymph nodes of the mice were determined in the same manner as described in Example 2.

The test system of test [4] is NC/Nga mice. The test can be described thus: Swelling (length) of the auricular lymph node in NC/Nga mice. Format: in vivo. Particulars: topical application for 5 weeks, PiCl-sensitized, vs Vaseline.
Description: as §1

In a further test the test system is GATA-luc. The test is described as follows: Luciferase reporter assay in HEK293 cells. The class given is cell-based. To be noted: HEK293, treated 3 hours after transfection for 48 hours, vs DMSO (fucoxanthin 0.1, 1, 10 μM). From the text: The plasmids pGL3-Cebpα promoter-luc and pGL3-Mitf1 promoter-luc were provided by Dr. Hua Huang (University of Colorado school, Denver, USA). The plasmid NF-κB-luc was purchased from Agilent Technologies (Santa Clara, Calif.). The GATA-responsive reporter vector was provided by Dr. Ishijima (Takasaki University of Health and welfare, Gunma, Japan). Three GATA motifs from mouse α-1 globulin gene (5′-TGATAA-3′) were tandemly inserted into Sma I site of pRBGP3. HDC promoter was provided by Dr. Ootsu (Tohoku University school of Medicine, Sendai, Japan) and cloned into Kpn I-Hind III site of pGL4.10 (Hdc promoter-luc). The reporter assay was performed according to the method described in Kanatani, N. et al. Briefly, HEK293 cells were transfected with each of the luciferase constructs (0.2 μg) or pRL-CMV (Promega, Madison, Wis.) (0.001 μg). At 3 hours after transfection, the cells were treated with fucoxanthin (0.1 μM, 1 μM or 10 μM) or DMSO for 48 hours and reporter assay was performed using Dual-Luciferase® Reporter Assay System (Promega). Luciferase activity was measured using luminometer model TD20/20n (Turner BioSystems, Sunnyvale, Calif.) and normalized to Renilla luciferase activity expressed by CMV promoter.
GATA-reporter assay was performed using HEK293 cells expressing GATA-luc prepared in Example 8, in the same manner as described in Example 8 except using various carotenoids (fucoxanthin, astaxanthin, lycopene, β-carotene or retinoic acid) in place of fucoxanthin.

Test [5] concerns bone marrow-derived mast cells (BMMCs). The test is described as follows: Granule formation in BMMCs, tryptase immunostaining. The class given is cell-based, mice. Particulars: 10 μM, vs control-treated cells. The protocol:
Mature mast cells were prepared in the same manner as described in Example 5. The BMMCs obtained were mounted on a glass slide and heat-fixed. The analysis of the preparation was performed according to the method described in Kosaka, T., Fukui, R., Matsui, M. et al. (2014) “RAGE, Receptor of Advanced Glycation Endoproducts, Negatively Regulates Chondrocytes Differentiation.” PLoS ONE 9(10): e108819. Briefly, the cells were reacted with a mouse anti-mast cell tryptase antibody (AB2378, Abcam, Tokyo, Japan) and then reacted with an FITC-conjugated anti-mouse IgG (Santa Cruz Biotechnology, Inc.) and 1 μg/mL DAPI (4′,6-diamino-2-phenylindole dihydrochloride). The fluorescent image was analyzed by EVOS® FL Cell Imaging System (Life Technologies Corp).
To confirm where the effect of fucoxanthin on granule formation in mast cells is specific rather than common to carotenoids, we compared granule formation between fucoxanthin-treated and astaxanthin-treated BMMCs by immunostaining of tryptase. The immunostaining assay was performed in the same manner as described in Example 6.

Regarding `C=CC[C@@H]1/C=C(\C)C[C@H](C)C[C@H](OC)[C@H]2O[C@@](O)(C(=O)C(=O)N3CCCC[C@H]3C(=O)O[C@H](/C(C)=C/[C@@H]3CC[C@@H](O)[C@H](OC)C3)[C@H](C)[C@@H](O)CC1=O)[C@H](C)C[C@@H]2OC` [tacrolimus, reference compound], in the test with NC/Nga mice [1], the “serum IgE level” value is “neither ear swelling (FIG. 9A) nor serum IgE level (FIG. 9B) were affected”. The “transdermal water loss (TEWL)” value in the test with NC/Nga mice [2] is reported as “did not affect TEWL”. Besides, the “clinical symptoms of dermatitis (AD symptoms)” value in the test on NC/Nga mice [3] is recorded as “protected AD symptoms partially”. Also, the “swelling of the auricular lymph node (ear swelling)” value in the test on NC/Nga mice [4] was “neither ear swelling (FIG. 9A) nor serum IgE level (FIG. 9B) were affected”.
With `CC1=C(/C=C/C(C)=C/C=C/C(C)=C/C=C/C=C(C)/C=C/C=C(C)/C=C/C2=C(C)C(=O)[C@@H](O)CC2(C)C)C(C)(C)C[C@H](O)C1=O` [astaxanthin, reference compound], in the test with GATA-luc, the GATA-luc expression entry is “not downregulated”. Also, in test [5], the “granule formation (tryptase-positive cells / immunoreactivity against tryptase)” value was “not significantly reduced”.
Regarding `CC1=C(/C=C/C(C)=C/C=C/C(C)=C/C=C/C=C(C)/C=C/C=C(C)/C=C/C2=C(C)CCCC2(C)C)C(C)(C)CCC1` [β-carotene], the GATA-luc expression entry in the test on GATA-luc is recorded as “rather upregulated”.
On to `CC(C)=CCC/C(C)=C/C=C/C(C)=C/C=C/C(C)=C/C=C/C=C(C)/C=C/C=C(C)/C=C/C=C(\C)CCC=C(C)C` [lycopene], for which the GATA-luc expression entry in the test with GATA-luc is “not downregulated”.

The values are drawn from US9566262B2, “Itch suppression by fucoxanthin” (THE RITSUMEIKAN TRUST, priority 2015, dated 2017).
